{"source": "paper PMC2231820", "about": "(The Journal of General Physiology, 2000)", "key": {"[1]": {"molecular_target": "T1, Rolf G204D CNG channel (Rattus norvegicus, UniProt Q00195, G204D)", "T1 sequence (Q00195 1-664 G204D)": "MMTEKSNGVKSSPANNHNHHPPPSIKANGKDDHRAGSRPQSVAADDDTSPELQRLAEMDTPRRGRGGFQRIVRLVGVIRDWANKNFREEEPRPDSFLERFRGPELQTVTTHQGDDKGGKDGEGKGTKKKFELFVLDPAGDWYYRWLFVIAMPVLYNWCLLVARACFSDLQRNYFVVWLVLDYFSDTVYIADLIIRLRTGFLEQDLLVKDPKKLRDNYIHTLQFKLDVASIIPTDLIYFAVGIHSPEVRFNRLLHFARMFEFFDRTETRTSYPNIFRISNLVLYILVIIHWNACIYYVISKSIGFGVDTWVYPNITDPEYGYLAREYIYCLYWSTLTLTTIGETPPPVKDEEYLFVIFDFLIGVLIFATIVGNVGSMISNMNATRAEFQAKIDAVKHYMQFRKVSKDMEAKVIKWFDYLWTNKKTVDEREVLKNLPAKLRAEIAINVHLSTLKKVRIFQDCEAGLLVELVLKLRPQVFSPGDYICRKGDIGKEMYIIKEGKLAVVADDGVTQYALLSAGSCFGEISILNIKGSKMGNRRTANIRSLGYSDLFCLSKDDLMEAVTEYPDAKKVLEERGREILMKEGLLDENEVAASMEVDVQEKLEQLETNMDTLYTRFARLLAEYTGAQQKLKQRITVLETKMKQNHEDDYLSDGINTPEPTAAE", "assay_type": "cell-based"}, "[2]": {"molecular_target": "T2, Rolf G204W CNG channel (Rattus norvegicus, UniProt Q00195, G204W)", "T2 sequence (Q00195 1-664 G204W)": "T1 sequence (Q00195 1-664 G204D) with D204W", "assay_type": "cell-based"}, "[3]": {"molecular_target": "T3, rat olfactory (Rolf) CNG channel, α homomultimer (Rattus norvegicus, UniProt Q00195)", "T3 sequence (Q00195 1-664)": "T1 sequence (Q00195 1-664 G204D) with D204G", "assay_type": "cell-based", "settings": "for Hill coefficient n of cGMP activation: six patches"}, "[4]": {"molecular_target": "T4, bovine rod (Brod) CNG channel, α homomultimer (Bos taurus, UniProt Q00194)", "T4 sequence (Q00194 1-690)": "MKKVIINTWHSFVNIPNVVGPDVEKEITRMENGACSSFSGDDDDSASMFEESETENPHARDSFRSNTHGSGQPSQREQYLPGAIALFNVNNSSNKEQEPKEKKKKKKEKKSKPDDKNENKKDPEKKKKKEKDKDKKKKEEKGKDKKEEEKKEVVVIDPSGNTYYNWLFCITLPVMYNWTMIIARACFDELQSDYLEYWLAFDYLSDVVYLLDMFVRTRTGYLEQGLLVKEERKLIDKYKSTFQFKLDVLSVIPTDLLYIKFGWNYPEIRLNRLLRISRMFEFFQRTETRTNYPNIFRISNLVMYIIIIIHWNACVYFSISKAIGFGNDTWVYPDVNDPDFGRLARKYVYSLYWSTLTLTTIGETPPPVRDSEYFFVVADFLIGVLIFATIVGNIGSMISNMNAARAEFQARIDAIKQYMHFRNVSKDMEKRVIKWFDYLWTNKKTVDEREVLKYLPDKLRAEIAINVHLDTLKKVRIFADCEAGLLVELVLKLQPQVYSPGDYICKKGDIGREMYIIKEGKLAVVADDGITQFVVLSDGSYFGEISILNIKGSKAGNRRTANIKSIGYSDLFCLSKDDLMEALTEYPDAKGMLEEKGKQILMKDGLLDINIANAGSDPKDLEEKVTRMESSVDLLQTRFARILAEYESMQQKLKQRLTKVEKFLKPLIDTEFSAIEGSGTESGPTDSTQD", "settings": "saturating 2 mM cGMP, ref Crary et al. 2000; cited from earlier work"}, "[5]": {"molecular_target": "T3, rat olfactory (Rolf) CNG channel, α homomultimer", "settings": "saturating 100 μM cGMP, ref Crary et al. 2000; cited from earlier work"}, "[6]": {"settings": "read-out: Percent inhibition by tetracaine"}}, "note": "Substitutions are numbered along the chain they refer to. Where two headings read alike, the source gives them in different places."}
{"compound": "CCCCNc1ccc(C(=O)OCCN(C)C)cc1", "note": "[Tetracaine, tetracaine]", "values": [{"measurement": "IC50", "setting": "[1]", "value": 10.8, "unit": "µM"}, {"measurement": "IC50", "setting": "[2]", "value": 2200, "unit": "nM"}, {"measurement": "inhibition at 40 µM", "setting": "[2]; [6]", "value": 100, "unit": "%"}, {"measurement": "IC50", "setting": "[3]", "value": 140, "unit": "µM"}, {"measurement": "inhibition at 40 µM", "setting": "[3]; [6]", "value": 10.4, "unit": "%"}]}
{"compound": "Nc1nc2c(ncn2[C@@H]2O[C@@H]3COP(=O)(O)O[C@H]3[C@H]2O)c(=O)[nH]1", "note": "[cGMP]", "values": [{"measurement": "Hill coefficient n of cGMP activation", "setting": "[2]; Rolf G204W, averaged six patches, +100 mV", "value": 1.7}, {"measurement": "Hill coefficient n of cGMP activation", "setting": "[2]; Rolf G204W, averaged six patches, −100 mV", "value": 1.7}, {"measurement": "Hill coefficient n of cGMP activation", "setting": "[2]; Rolf G204W, single patch, +100 mV", "value": 2.0}, {"measurement": "Hill coefficient n of cGMP activation", "setting": "[2]; Rolf G204W, single patch, −100 mV", "value": 2.0}, {"measurement": "EC50", "setting": "[2]; read-out: cGMP K1/2 (half-maximal activation), Rolf G204W, +100 mV, averaged data from six patches", "value": 14, "unit": "µM"}, {"measurement": "EC50", "setting": "[2]; read-out: cGMP K1/2, Rolf G204W, single patch, +100 mV", "value": 14, "unit": "µM"}, {"measurement": "EC50", "setting": "[2]; read-out: cGMP K1/2, Rolf G204W, single patch, −100 mV", "value": 18, "unit": "µM"}, {"measurement": "Hill coefficient n of cGMP activation", "setting": "[3]; Rolf, +100 mV", "value": 2.8}, {"measurement": "Hill coefficient n of cGMP activation", "setting": "[3]; Rolf, −100 mV", "value": 2.8}]}
{"compound": "diacylglycerol [DAG]", "values": [{"measurement": "DAG maximal percent inhibition (INmax)", "setting": "[4]", "value": 100, "unit": "%"}, {"measurement": "Hill coefficient n of DAG inhibition", "setting": "[4]", "value": 1.7}, {"measurement": "DAG maximal percent inhibition (INmax)", "setting": "[5]", "value": 31, "unit": "%"}, {"measurement": "DAG maximal percent inhibition (INmax)", "setting": "[2]; Rolf G204W, 2 mM cGMP", "value": 100, "unit": "%"}, {"measurement": "Hill coefficient n of DAG inhibition", "setting": "[2]; Rolf G204W, 2 mM cGMP", "value": 3.2}, {"measurement": "decrease of maximal current by DAG", "setting": "[3]; Rolf, 1.5 μM DAG, saturating 100 μM cGMP", "value": 14, "unit": "%"}, {"measurement": "inhibition of cGMP-activated current by DAG (in words)", "setting": "[3]; Rolf, 12 μM DAG, saturating cGMP", "value": "only partial inhibition"}]}
